Measured values taken from patent publication US10233195B2, “Anti-fibrotic pyridinones” (InterMune, Inc., priority 2014, dated 2019).

What follows are compounds tested on TGF-b induced Endothelin-1 production (assay: ET-1 assay: inhibitory effect on TGF-b induced endothelin-1 production). Settings: Homo sapiens, Fibroblast; fibroblasts, stimulant (TGFb, serum, LPA etc), ET-1 in media by ELISA, 4-parameter fit.
Type: cell-based
Method: Assay of Inhibitory Effect on TGF-b Induced Endothelin-1 Production
Fibroblasts (primary human lung and dermal, HFL-1, 3T3 etc) are seeded in 96-well plates at ˜15000 cells/well and serum starved for 0-48 hours. After media exchange, compounds serially diluted in DMSO are added to the cells. After a brief incubation of ˜30 min, stimulants (TGFb, serum, LPA etc) are added followed by further incubation for 16-48 hours. Media is then harvested and stored frozen in plate format for later endothelin-1 (ET-1) determination by ELISA. Toxicity measurements are made using the ATPlite kit (Perkin-Elmer). ET-1 is quantified using an ELISA kit (R&D Systems). The amount of ET-1 produced in the assay wells are back-calculated using the ELISA standard. The ability of a compound to inhibit ET-1 production is typically analyzed by fitting dose-response curves to a 4-parameter logistic function to obtain an EC50 value. A measure of cytotoxicity (CC50) is likewise reported from the same experiment using the ATPlite data.
Compounds of some embodiments were prepared according to synthetic methods described herein and assay data obtained for EC50 against ET-1. The assay data obtained is presented in Table 2, in which A=less than 50 μM, B=greater than or equal to 50 μM and less than or equal to 200 μM; and C=greater than 200 μM.

`CC(=O)c1ccc(=O)n(-c2cccc(C(F)(F)F)c2)c1` [Compound 11] and `CC(=O)c1ccc(=O)n(-c2cccc(F)c2)c1` [Compound 15] cannot be ordered by EC50: > 200 µM for the first, > 200 µM for the second.

Compared with `CC(=O)c1ccc(=O)n(-c2ccc(Cl)cc2)c1` [Compound 12], `CC(=O)c1ccc(=O)n(-c2ccccc2Cl)c1` [Compound 19] is lower in EC50: > 200 µM for the first, 50 to 200 µM for the second. The second is the more potent here.

`COc1cccc(-n2cc(C(C)=O)ccc2=O)c1` [Compound 14] and `CC(=O)Nc1cccc(-n2cc(C(C)=O)ccc2=O)c1` [Compound 18] cannot be ordered by EC50: > 200 µM for the first, > 200 µM for the second.

First: COCCOc1ccc(-n2cc(-c3ccc(F)cc3)c(C)cc2=O)cc1 [Compound 23]
Second: COCCOc1ccc(-n2cc(-c3ccccc3)c(C)cc2=O)cc1 [Compound 26]
The EC50 of the first is higher: 50 to 200 µM for the first, < 50 µM for the second. The second is the more potent here.

`COCCOc1ccc(-n2cc(-c3cn[nH]c3)c(C)cc2=O)cc1` [Compound 24] and `COCCOc1ccc(-n2cc(-c3cnn(C)c3)c(C)cc2=O)cc1` [Compound 25] cannot be ordered by EC50: > 200 µM for the first, > 200 µM for the second.

`O=c1ccc2c(n1-c1ccccc1)CCC2` [Compound 27] and `O=c1ccc(C2CCC2)cn1-c1ccccc1` [Compound 65] cannot be ordered by EC50: > 200 µM for the first, > 200 µM for the second.

Compared with `O=c1c2c(c(-c3ccc(F)cc3)cn1-c1ccc(OC(F)(F)F)cc1)CCCC2` [Compound 32], `O=c1c2c(c(-c3cccc(F)c3)cn1-c1ccc(OC(F)(F)F)cc1)CCCC2` [Compound 34] is lower in EC50: > 200 µM for the first, < 50 µM for the second. The second is the more potent here.

First: Cn1cc(-c2cn(-c3ccc(OC(F)(F)F)cc3)c(=O)c3c2CCCC3)cn1 [Compound 33]
Second: Cn1cc(-c2cn(-c3ccc(OC(F)(F)F)cc3)c(=O)c3c2NCCC3)cn1 [Compound 44]
The EC50 of the first is lower: < 50 µM for the first, > 200 µM for the second.

`CCOc1ccc(-n2cc(-c3cnn(C)c3)c3c(c2=O)CCCC3)c(C)c1` [Compound 35] and `CCOc1ccc(-n2cc(-c3cn[nH]c3)c3c(c2=O)CCCC3)c(C)c1` [Compound 36] cannot be ordered by EC50: < 50 µM for the first, < 50 µM for the second.

First: O=c1c2c(c(-c3cn[nH]c3)cn1-c1ccc(OC(F)(F)F)cc1)CCCC2 [Compound 37]
Second: O=c1c2c(c(-c3ccc(F)cc3)cn1-c1ccc(OC(F)(F)F)cc1)NCCC2 [Compound 45]
The EC50 of the first is lower: 50 to 200 µM for the first, > 200 µM for the second.

`O=c1c2ccc(C(F)(F)F)nc2c(-c2ccc(F)cc2)cn1-c1ccc(OC(F)(F)F)cc1` [Compound 38] and `O=c1c2cccnc2c(-c2ccc(F)cc2)cn1-c1ccc(OC(F)(F)F)cc1` [Compound 42] cannot be ordered by EC50: > 200 µM for the first, > 200 µM for the second.

Compared with `Cn1cc(-c2cn(-c3ccc(OC(F)(F)F)cc3)c(=O)c3ccc(C(F)(F)F)nc23)cn1` [Compound 39], `Cn1cc(-c2cn(-c3ccc(OC(F)(F)F)cc3)c(=O)c3nc[nH]c23)cn1` [Compound 57] is higher in EC50: < 50 µM for the first, > 200 µM for the second.

`O=c1c2nsnc2c(-c2ccc(F)cc2)cn1-c1ccc(OC(F)(F)F)cc1` [Compound 40] and `O=c1c2nc[nH]c2c(-c2ccc(F)cc2)cn1-c1ccc(OC(F)(F)F)cc1` [Compound 56] cannot be ordered by EC50: > 200 µM for the first, > 200 µM for the second.

`O=c1c2ncn(Cc3ccccc3)c2c(-c2ccc(F)cc2)cn1-c1ccc(OC(F)(F)F)cc1` [Compound 54] and `Cn1cc(-c2cn(-c3ccc(OC(F)(F)F)cc3)c(=O)c3ncn(Cc4ccccc4)c23)cn1` [Compound 55] cannot be ordered by EC50: > 200 µM for the first, > 200 µM for the second.

`CCOc1ccc(-n2cc(-c3ccc(F)cc3)c3nccnc3c2=O)c(C)c1` [Compound 62] and `COc1cc(=O)n(-c2ccc(OC(F)(F)F)cc2)cc1-c1ccc(F)cc1` [Compound 85] cannot be ordered by EC50: > 200 µM for the first, > 200 µM for the second.

`O=c1ccc(C2CCCC2)cn1-c1ccccc1` [Compound 64] and `O=c1ccc(C2CCCCC2)cn1-c1ccccc1` [Compound 66] fall in the same range of EC50: 50 to 200 µM for the first, 50 to 200 µM for the second.

First: CC(=O)n1cc(-c2ccc(=O)n(-c3ccccc3)c2)cn1 [Compound 67]
Second: CCCCOC(=O)n1cc(-c2ccc(=O)n(-c3ccccc3)c2)cn1 [Compound 74]
The EC50 of the first is higher: > 200 µM for the first, 50 to 200 µM for the second. The second is the more potent here.

First: O=c1ccc(-c2ccc(F)cc2)cn1CCc1ccccc1 [Compound 77]
Second: O=c1ccc(-c2ccc(F)cc2)cn1Cc1ccccc1 [Compound 79]
The EC50 of the first is higher: 50 to 200 µM for the first, < 50 µM for the second. The second is the more potent here.

`Cc1ccc(=O)n(Cc2ccccc2)c1` [Compound 78] and `C[C@H]1CCC(=O)N(c2ccccc2)C1` [Compound 83] cannot be ordered by EC50: > 200 µM for the first, > 200 µM for the second.

First: O=C1Cc2ccccc2N1c1ccc(OC(F)(F)F)cc1 [Compound 81]
Second: Cc1ccc2c(c1)CC(=O)N2c1ccc(OC(F)(F)F)cc1 [Compound 82]
The EC50 of the first is lower: 50 to 200 µM for the first, > 200 µM for the second. The first is the more potent here.

`C[C@@H]1CCC(=O)N(c2ccccc2)C1` [Compound 84] and `Cn1cc(-c2cn(-c3ccc(OC(F)(F)F)cc3)c(=O)cc2Nc2ccccc2)cn1` [Compound 130] cannot be ordered by EC50: > 200 µM for the first, > 200 µM for the second.

First: Nc1cc(=O)n(-c2ccc(OC(F)(F)F)cc2)cc1-c1ccc(F)cc1 [Compound 88]
Second: CNc1cc(=O)n(-c2ccc(OC(F)(F)F)cc2)cc1-c1ccc(F)cc1 [Compound 90]
The EC50 of the first is lower: 50 to 200 µM for the first, > 200 µM for the second.

`O=c1cc(NCc2ccccc2)c(-c2ccc(F)cc2)cn1-c1ccc(OC(F)(F)F)cc1` [Compound 89] and `O=C(NCc1ccccc1)Nc1cc(=O)n(-c2ccc(OC(F)(F)F)cc2)cc1-c1ccc(F)cc1` [Compound 116] cannot be ordered by EC50: > 200 µM for the first, > 200 µM for the second.

`O=c1cc(OCc2ccccc2)c(-c2ccc(F)cc2)cn1-c1ccc(OC(F)(F)F)cc1` [Compound 91] and `O=c1cc(Oc2ccccc2)c(-c2ccc(F)cc2)cn1-c1ccc(OC(F)(F)F)cc1` [Compound 102] cannot be ordered by EC50: > 200 µM for the first, > 200 µM for the second.

First: O=c1cc(OCCN2CCOCC2)c(-c2ccc(F)cc2)cn1-c1ccc(OC(F)(F)F)cc1 [Compound 92]
Second: O=c1cc(OCCN2CCCC2)c(-c2ccc(F)cc2)cn1-c1ccc(OC(F)(F)F)cc1 [Compound 93]
The EC50 of the first is higher: 50 to 200 µM for the first, < 50 µM for the second. The second is the more potent here.

Compared with `O=c1cc(OCCN2CCS(=O)(=O)CC2)c(-c2ccc(F)cc2)cn1-c1ccc(OC(F)(F)F)cc1` [Compound 94], `CN1CCN(CCOc2cc(=O)n(-c3ccc(OC(F)(F)F)cc3)cc2-c2ccc(F)cc2)CC1` [Compound 100] is lower in EC50: > 200 µM for the first, < 50 µM for the second.

`CN1CCC(Oc2cc(=O)n(-c3ccc(OC(F)(F)F)cc3)cc2-c2ccc(F)cc2)CC1` [Compound 95] and `O=c1cc(OC2CCS(=O)(=O)CC2)c(-c2ccc(F)cc2)cn1-c1ccc(OC(F)(F)F)cc1` [Compound 99] cannot be ordered by EC50: < 50 µM for the first, < 50 µM for the second.

`COCCOc1cc(=O)n(-c2ccc(OC(F)(F)F)cc2)cc1-c1ccc(F)cc1` [Compound 96] and `O=C1CCCN1CCOc1cc(=O)n(-c2ccc(OC(F)(F)F)cc2)cc1-c1ccc(F)cc1` [Compound 97] cannot be ordered by EC50: > 200 µM for the first, > 200 µM for the second.

First: O=C1COCCN1CCOc1cc(=O)n(-c2ccc(OC(F)(F)F)cc2)cc1-c1ccc(F)cc1 [Compound 98]
Second: CCCOC(=O)Nc1cc(=O)n(-c2ccc(OC(F)(F)F)cc2)cc1-c1ccc(F)cc1 [Compound 105]
The EC50 of the first is lower: 50 to 200 µM for the first, > 200 µM for the second.

`O=C(Nc1cc(=O)n(-c2ccc(OC(F)(F)F)cc2)cc1-c1ccc(F)cc1)OCc1ccccc1` [Compound 103] and `O=C(Nc1cc(=O)n(-c2ccc(OC(F)(F)F)cc2)cc1-c1ccc(F)cc1)Oc1ccccc1` [Compound 113] cannot be ordered by EC50: > 200 µM for the first, > 200 µM for the second.

`CC(=O)Nc1cc(=O)n(-c2ccc(OC(F)(F)F)cc2)cc1-c1ccc(F)cc1` [Compound 104] and `CCC(=O)Nc1cc(=O)n(-c2ccc(OC(F)(F)F)cc2)cc1-c1ccc(F)cc1` [Compound 106] cannot be ordered by EC50: > 200 µM for the first, > 200 µM for the second.

`CCCCC(=O)Nc1cc(=O)n(-c2ccc(OC(F)(F)F)cc2)cc1-c1ccc(F)cc1` [Compound 107] and `CCCC(=O)Nc1cc(=O)n(-c2ccc(OC(F)(F)F)cc2)cc1-c1ccc(F)cc1` [Compound 110] cannot be ordered by EC50: > 200 µM for the first, > 200 µM for the second.

`CC(C)C(=O)Nc1cc(=O)n(-c2ccc(OC(F)(F)F)cc2)cc1-c1ccc(F)cc1` [Compound 108] and `CC(C)OC(=O)Nc1cc(=O)n(-c2ccc(OC(F)(F)F)cc2)cc1-c1ccc(F)cc1` [Compound 112] cannot be ordered by EC50: > 200 µM for the first, > 200 µM for the second.

`COC(=O)Nc1cc(=O)n(-c2ccc(OC(F)(F)F)cc2)cc1-c1ccc(F)cc1` [Compound 111] and `CCCNC(=O)Nc1cc(=O)n(-c2ccc(OC(F)(F)F)cc2)cc1-c1ccc(F)cc1` [Compound 115] cannot be ordered by EC50: > 200 µM for the first, > 200 µM for the second.

`O=C(NCc1ccccc1)c1cc(=O)n(-c2ccc(OC(F)(F)F)cc2)cc1-c1ccc(F)cc1` [Compound 118] and `Cn1cc(-c2cn(-c3ccc(OC(F)(F)F)cc3)c(=O)cc2NCCc2ccccc2)cn1` [Compound 131] cannot be ordered by EC50: > 200 µM for the first, > 200 µM for the second.

`Cn1cc(-c2cn(-c3ccc(OC(F)(F)F)cc3)c(=O)cc2O)cn1` [Compound 121] and `Cn1cc(-c2cn(-c3ccc(OC(F)(F)F)cc3)c(=O)cc2Cl)cn1` [Compound 122] cannot be ordered by EC50: > 200 µM for the first, > 200 µM for the second.

`Cn1cc(-c2cn(-c3ccc(OC(F)(F)F)cc3)c(=O)cc2N)cn1` [Compound 124] and `CNc1cc(=O)n(-c2ccc(OC(F)(F)F)cc2)cc1-c1cnn(C)c1` [Compound 125] cannot be ordered by EC50: > 200 µM for the first, > 200 µM for the second.

Going from `Cn1cc(-c2cn(-c3ccc(OC(F)(F)F)cc3)c(=O)cc2N2CCCCC2)cn1` [Compound 127] to `Cn1cc(-c2cn(-c3ccc(OC(F)(F)F)cc3)c(=O)cc2N2CCOCC2)cn1` [Compound 128], the EC50 falls from > 200 µM to < 50 µM.

Compared with `Cn1cc(-c2cn(-c3ccc(OC(F)(F)F)cc3)c(=O)cc2N2CCc3ccccc3C2)cn1` [Compound 129], `Cn1cc(-c2cn(-c3ccc(OC(F)(F)F)cc3)c(=O)cc2NCc2c(Cl)cccc2Cl)cn1` [Compound 132] is higher in EC50: 50 to 200 µM for the first, > 200 µM for the second. The first is the more potent here.
